This note sets out measurements from ChEMBL document CHEMBL4507268 (2021).

In assay [1] the target is NT-3 growth factor receptor (Homo sapiens) (UniProt Q16288). The settings on record: Compound concentration 1000.0 nM.
Assay [2] has as its target Serine/threonine-protein kinase PAK 3 (Homo sapiens) (UniProt O75914). The settings on record: Compound concentration 1000.0 nM.
In assay [3] the target is Serine/threonine-protein kinase PknB (Mycobacterium tuberculosis) (UniProt P9WI81). The settings on record: Compound concentration 1000.0 nM.
Assay [4] addresses Angiopoietin-1 receptor (Homo sapiens) (UniProt Q02763). The settings on record: Compound concentration 1000.0 nM.
In assay [5] the target is Tyrosine-protein kinase FRK (Homo sapiens) (UniProt P42685). As to conditions: Compound concentration 1000.0 nM; call rule not given here.
Assay [6] concerns Epidermal growth factor receptor (Homo sapiens), P00533 [L858R]. The settings on record: Compound concentration 1000.0 nM.
Assay [7] deals with T1, Mitogen-activated protein kinase kinase kinase 2 (Homo sapiens) (UniProt Q9Y2U5).
T1 sequence (whole entry): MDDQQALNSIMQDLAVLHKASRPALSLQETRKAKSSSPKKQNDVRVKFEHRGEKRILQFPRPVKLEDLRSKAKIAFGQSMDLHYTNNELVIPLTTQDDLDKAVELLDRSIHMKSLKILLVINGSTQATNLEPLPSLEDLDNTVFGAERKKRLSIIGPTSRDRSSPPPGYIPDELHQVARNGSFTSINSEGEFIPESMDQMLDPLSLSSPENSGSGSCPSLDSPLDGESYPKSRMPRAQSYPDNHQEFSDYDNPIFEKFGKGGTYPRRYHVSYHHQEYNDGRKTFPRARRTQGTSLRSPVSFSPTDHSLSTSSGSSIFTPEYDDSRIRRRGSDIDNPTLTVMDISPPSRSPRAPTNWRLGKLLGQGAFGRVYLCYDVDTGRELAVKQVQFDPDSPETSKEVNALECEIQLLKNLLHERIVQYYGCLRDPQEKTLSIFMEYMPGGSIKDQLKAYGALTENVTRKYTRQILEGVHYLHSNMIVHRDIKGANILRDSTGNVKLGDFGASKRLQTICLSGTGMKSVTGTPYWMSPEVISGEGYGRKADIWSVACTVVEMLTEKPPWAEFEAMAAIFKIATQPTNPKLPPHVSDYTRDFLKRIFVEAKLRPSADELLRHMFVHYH
The settings on record: Compound concentration 1000.0 nM.

The target of assay [8] is Phosphatidylinositol 5-phosphate 4-kinase type-2 beta (Homo sapiens) (UniProt P78356). The settings on record: Compound concentration 1000.0 nM.
In assay [9] the target is T2, Serine/threonine-protein kinase haspin (Homo sapiens) (UniProt Q8TF76).
T2 sequence (whole entry): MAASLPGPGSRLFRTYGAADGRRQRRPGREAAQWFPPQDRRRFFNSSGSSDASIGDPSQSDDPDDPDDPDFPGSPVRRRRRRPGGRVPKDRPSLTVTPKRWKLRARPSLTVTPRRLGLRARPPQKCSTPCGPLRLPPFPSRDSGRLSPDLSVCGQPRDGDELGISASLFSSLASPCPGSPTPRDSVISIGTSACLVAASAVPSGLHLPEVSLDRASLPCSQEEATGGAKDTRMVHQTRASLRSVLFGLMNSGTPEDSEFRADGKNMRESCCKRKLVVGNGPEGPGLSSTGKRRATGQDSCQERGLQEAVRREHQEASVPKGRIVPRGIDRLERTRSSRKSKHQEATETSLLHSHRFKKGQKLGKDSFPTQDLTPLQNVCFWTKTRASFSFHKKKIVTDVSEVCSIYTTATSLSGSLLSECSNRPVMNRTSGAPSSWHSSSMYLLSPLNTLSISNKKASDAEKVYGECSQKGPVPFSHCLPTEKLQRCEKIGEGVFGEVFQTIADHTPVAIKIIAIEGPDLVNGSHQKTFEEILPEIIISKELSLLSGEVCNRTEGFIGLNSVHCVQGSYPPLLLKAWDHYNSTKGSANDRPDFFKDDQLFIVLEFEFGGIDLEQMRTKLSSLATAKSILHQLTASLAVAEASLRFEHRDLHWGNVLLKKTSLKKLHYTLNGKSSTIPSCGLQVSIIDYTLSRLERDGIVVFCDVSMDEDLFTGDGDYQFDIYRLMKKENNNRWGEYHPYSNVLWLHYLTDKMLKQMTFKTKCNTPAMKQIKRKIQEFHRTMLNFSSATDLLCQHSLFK
The settings on record: Compound concentration 1000.0 nM.

Assay [10] concerns the target Ribosomal protein S6 kinase alpha-5 (Homo sapiens) (UniProt O75582). The settings on record: Compound concentration 1000.0 nM.
Another assay deals with SK-BR-3. Kind of assay: Proliferation assay: SK-BR-3 (breast cancer). It is filed as functional, cell-based. The settings on record: Homo sapiens.
For assay [11], the target named is Serine/threonine-protein kinase RIO2 (Homo sapiens) (UniProt Q9BVS4). The settings on record: Compound concentration 1000.0 nM.
In assay [12] the target is BMP-2-inducible protein kinase (Homo sapiens) (UniProt Q9NSY1). The settings on record: Compound concentration 1000.0 nM.
For assay [13], the target named is Epidermal growth factor receptor (Homo sapiens) (UniProt P00533). The settings on record: Compound concentration 1000.0 nM.
Assay [14] has as its system Mast/stem cell growth factor receptor Kit (Homo sapiens), P10721 [L576P]. The settings on record: Compound concentration 1000.0 nM.
Assay [15] has as its target Casein kinase I isoform gamma-2 (Homo sapiens) (UniProt P78368). The settings on record: Compound concentration 1000.0 nM.
The target in assay [16] is Hepatocyte growth factor receptor (Homo sapiens) (UniProt P08581). As to conditions: Compound concentration 1000.0 nM.
The subject of assay [17] is Receptor-type tyrosine-protein kinase FLT3 (Homo sapiens), P36888 [D835H]. The settings on record: Compound concentration 1000.0 nM.
The target in assay [18] is Non-receptor tyrosine-protein kinase TYK2 (Homo sapiens) (UniProt P29597). The settings on record: Compound concentration 1000.0 nM.
Assay [19] deals with Calcium/calmodulin-dependent protein kinase kinase 2 (Homo sapiens) (UniProt Q96RR4). The settings on record: Compound concentration 1000.0 nM.

Molecules are shown by their SMILES.

Mast/stem cell growth factor receptor Kit (Homo sapiens), P10721 [L576P], sequence (P10721 whole entry L576P, canonical isoform): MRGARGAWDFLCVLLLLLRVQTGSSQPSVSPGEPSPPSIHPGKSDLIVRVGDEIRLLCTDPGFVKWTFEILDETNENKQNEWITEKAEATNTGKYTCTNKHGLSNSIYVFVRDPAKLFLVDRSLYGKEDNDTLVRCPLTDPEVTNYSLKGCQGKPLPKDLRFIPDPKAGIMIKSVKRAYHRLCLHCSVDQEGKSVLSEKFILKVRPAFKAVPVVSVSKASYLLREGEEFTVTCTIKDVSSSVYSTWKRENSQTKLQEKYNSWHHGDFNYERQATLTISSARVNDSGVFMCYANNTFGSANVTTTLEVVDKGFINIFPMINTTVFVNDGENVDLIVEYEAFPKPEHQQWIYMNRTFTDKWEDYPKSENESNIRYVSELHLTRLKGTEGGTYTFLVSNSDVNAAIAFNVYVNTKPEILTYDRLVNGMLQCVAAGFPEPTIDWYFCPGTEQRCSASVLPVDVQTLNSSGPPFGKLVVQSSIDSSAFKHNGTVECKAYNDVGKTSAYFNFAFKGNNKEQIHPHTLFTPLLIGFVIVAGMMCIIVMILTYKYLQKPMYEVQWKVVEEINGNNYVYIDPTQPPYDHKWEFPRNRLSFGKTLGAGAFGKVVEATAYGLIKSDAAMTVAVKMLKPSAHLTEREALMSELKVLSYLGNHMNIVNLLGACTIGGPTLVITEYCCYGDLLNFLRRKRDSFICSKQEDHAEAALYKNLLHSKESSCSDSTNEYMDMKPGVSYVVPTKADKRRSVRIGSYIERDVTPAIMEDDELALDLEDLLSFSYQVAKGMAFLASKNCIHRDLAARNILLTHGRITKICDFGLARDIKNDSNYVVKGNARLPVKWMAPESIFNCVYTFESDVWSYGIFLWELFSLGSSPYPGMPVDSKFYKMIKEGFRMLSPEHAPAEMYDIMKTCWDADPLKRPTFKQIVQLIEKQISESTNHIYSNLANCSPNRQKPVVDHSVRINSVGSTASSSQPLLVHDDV
NT-3 growth factor receptor (Homo sapiens), sequence (Q16288 32-839 limits assumed): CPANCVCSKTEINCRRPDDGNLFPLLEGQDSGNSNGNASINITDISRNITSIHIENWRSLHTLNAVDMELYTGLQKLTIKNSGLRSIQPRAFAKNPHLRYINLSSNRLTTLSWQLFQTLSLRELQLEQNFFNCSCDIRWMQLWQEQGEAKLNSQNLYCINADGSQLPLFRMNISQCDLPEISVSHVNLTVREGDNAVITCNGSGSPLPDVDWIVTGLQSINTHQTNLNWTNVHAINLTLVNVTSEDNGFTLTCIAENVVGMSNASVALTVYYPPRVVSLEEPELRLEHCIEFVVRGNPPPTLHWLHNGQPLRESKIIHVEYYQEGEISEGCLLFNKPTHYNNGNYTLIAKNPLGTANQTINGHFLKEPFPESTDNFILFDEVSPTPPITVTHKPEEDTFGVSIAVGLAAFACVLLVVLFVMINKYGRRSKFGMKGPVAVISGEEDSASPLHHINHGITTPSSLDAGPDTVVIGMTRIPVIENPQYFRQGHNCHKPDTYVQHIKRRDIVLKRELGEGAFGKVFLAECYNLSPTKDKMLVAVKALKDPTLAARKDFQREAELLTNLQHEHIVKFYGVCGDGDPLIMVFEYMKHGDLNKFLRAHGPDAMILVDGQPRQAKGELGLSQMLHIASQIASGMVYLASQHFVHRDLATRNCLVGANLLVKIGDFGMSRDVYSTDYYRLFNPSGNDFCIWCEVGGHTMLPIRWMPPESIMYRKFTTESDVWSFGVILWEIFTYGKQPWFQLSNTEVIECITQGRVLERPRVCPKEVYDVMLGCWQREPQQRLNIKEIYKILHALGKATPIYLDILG
Non-receptor tyrosine-protein kinase TYK2 (Homo sapiens), sequence (P29597 whole entry): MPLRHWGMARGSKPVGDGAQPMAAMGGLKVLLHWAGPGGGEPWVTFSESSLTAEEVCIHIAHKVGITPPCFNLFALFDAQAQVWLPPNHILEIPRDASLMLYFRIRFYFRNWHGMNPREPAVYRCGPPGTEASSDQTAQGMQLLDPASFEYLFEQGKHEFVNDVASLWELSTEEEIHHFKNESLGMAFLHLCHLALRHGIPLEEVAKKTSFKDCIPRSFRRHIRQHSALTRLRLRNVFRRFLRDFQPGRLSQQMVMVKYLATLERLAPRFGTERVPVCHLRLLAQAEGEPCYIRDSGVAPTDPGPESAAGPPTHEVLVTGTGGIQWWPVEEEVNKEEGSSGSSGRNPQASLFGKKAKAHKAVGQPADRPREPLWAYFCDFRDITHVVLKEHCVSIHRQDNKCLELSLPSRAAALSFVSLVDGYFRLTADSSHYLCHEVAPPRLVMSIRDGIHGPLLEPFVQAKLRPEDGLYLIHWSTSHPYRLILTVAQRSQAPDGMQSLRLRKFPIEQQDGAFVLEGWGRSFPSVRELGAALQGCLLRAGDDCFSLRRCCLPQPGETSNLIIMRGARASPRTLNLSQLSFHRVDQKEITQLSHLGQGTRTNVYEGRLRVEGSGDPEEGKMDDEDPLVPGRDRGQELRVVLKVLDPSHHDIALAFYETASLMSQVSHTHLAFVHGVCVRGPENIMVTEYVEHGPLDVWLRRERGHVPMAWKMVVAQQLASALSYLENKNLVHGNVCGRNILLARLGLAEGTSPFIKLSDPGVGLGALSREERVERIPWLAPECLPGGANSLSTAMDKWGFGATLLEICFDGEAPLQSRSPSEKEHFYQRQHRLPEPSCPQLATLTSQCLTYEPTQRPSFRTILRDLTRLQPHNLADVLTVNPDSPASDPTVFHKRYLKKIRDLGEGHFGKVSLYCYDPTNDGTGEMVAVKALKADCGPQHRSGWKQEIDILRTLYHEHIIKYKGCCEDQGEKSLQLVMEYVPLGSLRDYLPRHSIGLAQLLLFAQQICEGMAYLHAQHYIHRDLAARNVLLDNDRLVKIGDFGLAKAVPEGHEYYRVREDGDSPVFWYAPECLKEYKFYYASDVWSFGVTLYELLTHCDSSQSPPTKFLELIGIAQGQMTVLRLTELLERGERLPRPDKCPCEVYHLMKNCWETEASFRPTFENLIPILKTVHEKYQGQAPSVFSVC
Serine/threonine-protein kinase PAK 3 (Homo sapiens), sequence (O75914 whole entry, looked up): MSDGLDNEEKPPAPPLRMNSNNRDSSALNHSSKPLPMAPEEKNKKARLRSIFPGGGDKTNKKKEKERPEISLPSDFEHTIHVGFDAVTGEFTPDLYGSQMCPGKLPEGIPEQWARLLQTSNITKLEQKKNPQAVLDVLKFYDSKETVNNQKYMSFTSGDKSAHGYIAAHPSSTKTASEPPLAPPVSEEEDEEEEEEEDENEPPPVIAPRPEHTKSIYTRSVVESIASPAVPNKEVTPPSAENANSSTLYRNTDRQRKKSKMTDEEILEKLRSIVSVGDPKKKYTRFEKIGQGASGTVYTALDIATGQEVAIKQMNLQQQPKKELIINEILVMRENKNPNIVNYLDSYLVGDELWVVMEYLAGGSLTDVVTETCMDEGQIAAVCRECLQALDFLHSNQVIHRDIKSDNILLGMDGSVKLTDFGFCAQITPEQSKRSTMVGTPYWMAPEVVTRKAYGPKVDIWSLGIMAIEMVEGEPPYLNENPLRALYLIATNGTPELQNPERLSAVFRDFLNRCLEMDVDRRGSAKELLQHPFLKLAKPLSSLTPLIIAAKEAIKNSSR
Tyrosine-protein kinase FRK (Homo sapiens), sequence (P42685 whole entry): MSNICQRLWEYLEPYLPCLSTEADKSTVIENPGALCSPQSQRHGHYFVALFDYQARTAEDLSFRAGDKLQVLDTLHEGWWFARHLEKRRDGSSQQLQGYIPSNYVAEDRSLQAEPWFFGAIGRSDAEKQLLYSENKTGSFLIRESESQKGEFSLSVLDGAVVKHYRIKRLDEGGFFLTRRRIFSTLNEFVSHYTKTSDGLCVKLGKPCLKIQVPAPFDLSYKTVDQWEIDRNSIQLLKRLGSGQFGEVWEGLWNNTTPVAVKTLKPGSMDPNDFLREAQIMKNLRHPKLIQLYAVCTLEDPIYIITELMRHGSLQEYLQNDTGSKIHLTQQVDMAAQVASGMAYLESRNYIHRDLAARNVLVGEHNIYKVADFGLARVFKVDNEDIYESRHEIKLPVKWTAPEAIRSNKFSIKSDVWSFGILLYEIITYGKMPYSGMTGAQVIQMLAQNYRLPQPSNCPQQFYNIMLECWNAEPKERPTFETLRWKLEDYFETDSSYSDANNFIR
Casein kinase I isoform gamma-2 (Homo sapiens), sequence (P78368 whole entry, looked up, canonical isoform): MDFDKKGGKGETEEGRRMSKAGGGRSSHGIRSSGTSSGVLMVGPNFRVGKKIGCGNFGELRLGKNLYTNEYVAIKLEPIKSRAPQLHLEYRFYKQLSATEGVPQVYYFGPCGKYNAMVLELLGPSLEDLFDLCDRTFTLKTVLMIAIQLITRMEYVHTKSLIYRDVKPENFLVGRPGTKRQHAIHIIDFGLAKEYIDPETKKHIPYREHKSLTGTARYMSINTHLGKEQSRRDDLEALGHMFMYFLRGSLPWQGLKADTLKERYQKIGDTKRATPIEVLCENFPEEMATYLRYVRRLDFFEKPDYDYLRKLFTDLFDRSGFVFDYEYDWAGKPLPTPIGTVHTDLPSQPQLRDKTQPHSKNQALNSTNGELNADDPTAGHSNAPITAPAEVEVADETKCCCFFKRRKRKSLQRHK
Serine/threonine-protein kinase PknB (Mycobacterium tuberculosis), sequence (P9WI81 whole entry): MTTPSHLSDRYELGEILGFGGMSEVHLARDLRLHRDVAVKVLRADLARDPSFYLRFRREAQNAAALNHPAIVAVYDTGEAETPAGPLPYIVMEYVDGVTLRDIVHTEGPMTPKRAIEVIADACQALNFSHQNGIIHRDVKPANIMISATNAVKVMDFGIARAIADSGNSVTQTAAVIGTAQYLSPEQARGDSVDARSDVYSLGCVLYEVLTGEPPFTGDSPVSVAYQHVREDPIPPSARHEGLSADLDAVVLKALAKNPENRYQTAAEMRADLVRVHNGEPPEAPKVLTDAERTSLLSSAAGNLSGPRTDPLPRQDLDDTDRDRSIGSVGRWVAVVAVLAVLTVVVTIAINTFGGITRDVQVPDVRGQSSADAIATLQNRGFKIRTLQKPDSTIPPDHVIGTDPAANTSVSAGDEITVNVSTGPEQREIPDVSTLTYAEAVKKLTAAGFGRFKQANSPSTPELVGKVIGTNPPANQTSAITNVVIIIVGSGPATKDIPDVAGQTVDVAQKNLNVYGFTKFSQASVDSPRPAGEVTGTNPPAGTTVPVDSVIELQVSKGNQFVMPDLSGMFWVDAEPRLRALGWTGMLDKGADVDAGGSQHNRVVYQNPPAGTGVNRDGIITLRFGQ

Take `Cc1nc(C2CCN(C(=O)c3ccc(OC(F)(F)F)cc3N)CC2)c2ncc(N3CCN(C)CC3)cc2n1` [BAY-693]: the residual activity in [1] was 97%; in assay [2], 100%; in assay [3] it was 100%; in assay [4] it was 81%; in assay [5] it was 95%; in [6] it was 89%. Further, the residual activity in assay [7] is 100%; in assay [8], 78%; in [9], 100%; in assay [10] it was 100%; in [11], 100%; in assay [12] it was 100%. Besides, the residual activity was 86% in assay [13]; 87% in assay [14]; 93% in assay [15]; 94% in [16]; 69% in assay [17]; 100% in assay [18]. Besides, the residual activity in [19] is 100%. The half-inhibitory concentration (IC50) in the assay with SK-BR-3 is listed as 22.4 µM (not active).
Take `CN1CCN(c2cnc3c(C4CCN(C(=O)c5ccc(OC(F)(F)F)cc5N)CC4)ncnc3c2)CC1` [BAY-885]: the residual activity in [1] is 100%; in assay [2], 88%; in assay [3] it was 97%; in assay [4], 74%; in assay [5], 100%; in assay [6], 100%. The residual activity is 100% in assay [7]; 79% in assay [8]; 100% in assay [9]; 100% in assay [10]; 100% in [11]; 97% in assay [12]. In addition, the residual activity in assay [13] was 99%; in [14] it was 95%; in assay [15], 100%; in [16], 69%; in assay [17], 75%; in [18], 93%. Further, in assay [19], the residual activity is 100%. Also, in the assay with SK-BR-3, the IC50 is reported as > 30 µM (not active).

One may read the IC50 as the concentration that inhibits the measured activity by half. The low end stands for higher potency, the high end for lower potency.
